From US20260226065A1, “SUBSTITUTED BENZENE COMPOUND” (DAIICHI SANKYO COMPANY, LIMITED, priority 2023, published 2026)

Target: T1, NLRP3 inflammasome (Homo sapiens, UniProt Q96P20)
T1 construct: endogenous in cells; host or cells: THP-1 (human monocyte-derived), PMA-differentiated, Nigericin-stimulated
Experiment: In vitro IL-1β production test (PMA-differentiated THP-1 cells, Nigericin stimulation, AlphaLISA)
Type: cell-based
Details: inhibition of IL-1β production; THP-1 cells differentiated with 200 nM PMA; 0.015 mM Nigericin; 2 hours
Outline: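 THP-1 cells were differentiated one day with 200 nM PMA, then given serum-free medium with 0.015 mM nigericin plus compound for 2 h. Supernatant IL-1β was measured by AlphaLISA, with nigericin alone as 0% and unstimulated as 100% inhibition. IC50 came from logistic sigmoid fitting.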

T1 sequence (Q96P20 whole entry): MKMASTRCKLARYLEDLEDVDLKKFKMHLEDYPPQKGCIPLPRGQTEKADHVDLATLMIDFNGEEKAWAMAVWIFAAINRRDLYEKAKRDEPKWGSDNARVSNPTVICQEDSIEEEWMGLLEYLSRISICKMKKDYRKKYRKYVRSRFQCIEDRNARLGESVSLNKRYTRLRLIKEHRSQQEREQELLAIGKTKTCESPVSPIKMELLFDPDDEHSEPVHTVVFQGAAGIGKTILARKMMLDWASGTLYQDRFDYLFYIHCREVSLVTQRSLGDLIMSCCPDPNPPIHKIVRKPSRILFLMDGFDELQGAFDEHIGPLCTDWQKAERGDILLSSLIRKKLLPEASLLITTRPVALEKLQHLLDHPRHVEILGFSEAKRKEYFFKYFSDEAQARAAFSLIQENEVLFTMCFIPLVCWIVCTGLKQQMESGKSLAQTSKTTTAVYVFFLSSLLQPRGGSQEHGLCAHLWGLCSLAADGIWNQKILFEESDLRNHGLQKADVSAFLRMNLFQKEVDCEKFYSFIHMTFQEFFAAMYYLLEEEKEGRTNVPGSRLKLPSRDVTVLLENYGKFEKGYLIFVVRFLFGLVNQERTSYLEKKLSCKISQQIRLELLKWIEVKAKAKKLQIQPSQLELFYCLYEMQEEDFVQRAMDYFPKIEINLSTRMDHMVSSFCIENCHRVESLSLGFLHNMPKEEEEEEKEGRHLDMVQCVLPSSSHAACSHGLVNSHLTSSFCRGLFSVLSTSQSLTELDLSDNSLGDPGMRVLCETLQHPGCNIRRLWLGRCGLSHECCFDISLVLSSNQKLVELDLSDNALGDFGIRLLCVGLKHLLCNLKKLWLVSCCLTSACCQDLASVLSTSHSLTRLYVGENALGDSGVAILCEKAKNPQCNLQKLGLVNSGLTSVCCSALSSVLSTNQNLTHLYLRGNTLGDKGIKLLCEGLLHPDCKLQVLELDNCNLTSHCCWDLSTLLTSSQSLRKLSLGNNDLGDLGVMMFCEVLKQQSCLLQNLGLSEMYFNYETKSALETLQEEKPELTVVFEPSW

Compound | IC50 [nM]
Cc1cc(C(F)(F)F)cc(O)c1-c1cc2c(C)cn([C@H]3C[C@@](C)(O)C3)c2nn1 [Example 4, 2-{7-[(1s,3s)-3-hydroxy-3-methylcyclobutyl]-5-methyl-7H-pyrrolo[2,3-c]pyridazin-3-yl}-3-methyl-5-(trifluoromethyl)phenol] | 19.8
COc1cn([C@H]2C[C@@](C)(O)C2)c2nnc(-c3c(C)cc(C(F)(F)F)cc3O)cc12 [Example 10, 2-{7-[(1s,3s)-3-hydroxy-3-methylcyclobutyl]-5-methoxy-7H-pyrrolo[2,3-c]pyridazin-3-yl}-3-methyl-5-(trifluoromethyl)phenol] | 23.7
Cc1cc(C(F)(F)F)cc(O)c1-c1cc2c(C3CC3)cn([C@H]3C[C@@](C)(O)C3)c2nn1 [Example 46, 2-[5-cyclopropyl-7-[(1s,3s)-3-hydroxy-3-methylcyclobutyl]-7H-pyrrolo[2,3-c]pyridazin-3-yl]-3-methyl-5-(trifluoromethyl)phenol] | 91.4
Cc1cc(C)c(-c2cc3c(C)cn([C@H]4C[C@@](C)(O)C4)c3nn2)c(O)c1 [Example 90, 2-{7-[(1s,3s)-3-hydroxy-3-methylcyclobutyl]-5-methyl-7H-pyrrolo[2,3-c]pyridazin-3-yl}-3,5-dimethylphenol] | 56.5
CN1CCC[C@@H](N2CCN3CCCc4c(-c5ccc(C(F)(F)F)cc5O)nnc2c43)C1 [Example 38, 2-{9-[(3R)-1-methylpiperidin-3-yl]-5,6,8,9-tetrahydro-4H, 7H-1,2,6a,9-tetraazaphenalen-3-yl}-5-(trifluoromethyl)phenol] | 108
Cc1cc(Cl)cc(O)c1-c1cc2c(F)cn([C@H]3C[C@@](C)(O)C3)c2nn1 [Example 27, 5-chloro-2-{5-fluoro-7-[(1s,3s)-3-hydroxy-3-methylcyclobutyl]-7H-pyrrolo[2,3-c]pyridazin-3-yl}-3-methylphenol] | 25.6
COc1cn([C@H]2C[C@@](C)(O)C2)c2nnc(-c3c(C)cc(OC(F)F)cc3O)cc12 [Example 72, 5-(difluoromethoxy)-2-{7-[(1s,3s)-3-hydroxy-3-methylcyclobutyl]-5-methoxy-7H-pyrrolo[2,3-c]pyridazin-3-yl}-3-methylphenol] | 53.1
Cc1cc(C(F)(F)F)cc(O)c1-c1cc2ccn(C[C@H](C)O)c2nn1 [Example 89, 2-{7-[(28)-2-hydroxypropyl]-7H-pyrrolo[2,3-c]pyridazin-3-yl}-3-methyl-5-(trifluoromethyl)phenol] | 138
Cc1cc(OC(F)F)cc(O)c1-c1cc2c(OC(F)F)cn([C@H]3C[C@@](C)(O)C3)c2nn1 [Example 78, 5-(difluoromethoxy)-2-[5-(difluoromethoxy)-7-[(1s,3s)-3-hydroxy-3-methylcyclobutyl]-7H-pyrrolo[2,3-c]pyridazin-3-yl]-3-methylphenol] | 35
CCc1cn([C@H]2C[C@@](C)(O)C2)c2nnc(-c3c(C)cc(C(F)(F)F)cc3O)cc12 [Example 44, 2-{5-ethyl-7-[(1s,3s)-3-hydroxy-3-methylcyclobutyl]-7H-pyrrolo[2,3-c]pyridazin-3-yl}-3-methyl-5-(trifluoromethyl)phenol] | 75
COc1cn(C23CCCC(O)(C2)C3)c2nnc(-c3c(C)cc(C(F)(F)F)cc3O)cc12 [Example 24, 5-{3-[2-hydroxy-6-methyl-4-(trifluoromethyl)phenyl]-5-methoxy-7H-pyrrolo[2,3-c]pyridazin-7-yl}bicyclo[3.1.1]heptan-1-ol] | 34.8
Cc1cc(C(F)F)cc(O)c1-c1cc2c(C)cn([C@H]3C[C@@](C)(O)C3)c2nn1 [Example 92, 5-(difluoromethyl)-2-{7-[(1s,3s)-3-hydroxy-3-methylcyclobutyl]-5-methyl-7H-pyrrolo[2,3-c]pyridazin-3-yl}-3-methylphenol] | 59.2
Cc1cc(C(F)(F)F)cc(O)c1-c1cc2c3ccccc3n([C@H]3C[C@@](C)(O)C3)c2nn1 [Example 81, 2-{9-[(1s,3s)-3-hydroxy-3-methylcyclobutyl]-9H-pyridazino[3,4-b]indol-3-yl}-3-methyl-5-(trifluoromethyl)phenol] | 54.7
Cc1cc(C(F)(F)F)cc(O)c1-c1cc2ccn([C@H]3C[C@@](C)(O)C3)c2nn1 [Example 3, 2-{7-[(1s,3s)-3-hydroxy-3-methylcyclobutyl]-7H-pyrrolo[2,3-c]pyridazin-3-yl}-3-methyl-5-(trifluoromethyl)phenol] | 52.5
Cc1cc(C(C)(F)F)cc(O)c1-c1cc2c(C)cn([C@H]3C[C@@](C)(O)C3)c2nn1 [Example 69, 5-(1,1-difluoroethyl)-2-{7-[(1s,3s)-3-hydroxy-3-methylcyclobutyl]-5-methyl-7H-pyrrolo[2,3-c]pyridazin-3-yl}-3-methylphenol] | 47.8
Cc1cc(C(F)(F)F)cc(O)c1-c1cc2c(C)cn([C@@H]3CCC[C@@H](O)C3)c2nn1 [Example 54, 2-{7-[(1R,3R)-3-hydroxycyclohexyl]-5-methyl-7H-pyrrolo[2,3-c]pyridazin-3-yl}-3-methyl-5-(trifluoromethyl)phenol] | 84.3
Cc1cc(C(F)(F)F)cc(O)c1-c1cc2c(nn1)N([C@@H]1CCCN(C)C1)CCCN2C [Example 37, 3-methyl-2-{5-methyl-9-[(3R)-1-methylpiperidin-3-yl]-6,7,8,9-tetrahydro-5H-pyridazino[3,4-b][1,4]diazepin-3-yl}-5-(trifluoromethyl)phenol] | 25.8
CCc1cc(C)c(-c2cc3c(C)cn([C@H]4C[C@@](C)(O)C4)c3nn2)c(O)c1 [Example 62, 5-ethyl-2-{7-[(1s,3s)-3-hydroxy-3-methylcyclobutyl]-5-methyl-7H-pyrrolo[2,3-c]pyridazin-3-yl}-3-methylphenol] | 70.8
Cc1cc(C(F)(F)F)cc(O)c1-c1cc2c(nn1)N([C@@H]1CCCN(C)C1)CCC2 [Example 36, 3-methyl-2-{8-[(3R)-1-methylpiperidin-3-yl]-5,6,7,8-tetrahydropyrido[2,3-c]pyridazin-3-yl}-5-(trifluoromethyl)phenol] | 42.1

The next compounds have a lower IC50 than those just listed; values first:

IC50 [nM] | Compound
4.86 | Cc1cc(C(F)(F)F)cc(O)c1-c1cc2c(nn1)N([C@@H]1CCCN(C(C)C)C1)CC2 [Example 15, 3-methyl-2-{7-[(3R)-1-(propan-2-yl)piperidin-3-yl]-6,7-dihydro-5H-pyrrolo[2,3-c]pyridazin-3-yl}-5-(trifluoromethyl)phenol]
12.4 | Cc1cc(Cl)cc(O)c1-c1cc2c(OC(F)F)cn([C@H]3C[C@@](C)(O)C3)c2nn1 [Example 29, 5-chloro-2-{5-(difluoromethoxy)-7-[(1s,3s)-3-hydroxy-3-methylcyclobutyl]-7H-pyrrolo[2,3-c]pyridazin-3-yl}-3-methylphenol]
7.83 | Cc1cc(Cl)cc(O)c1-c1cc2c3c(n([C@H]4C[C@@](C)(O)C4)c2nn1)CCC3 [Example 82, 5-chloro-2-{8-[(1s,3s)-3-hydroxy-3-methylcyclobutyl]-5,6,7,8-tetrahydrocyclopenta[4,5]pyrrolo[2,3-c]pyridazin-3-yl}-3-methylphenol]
6.65 | Cc1cc(C(F)(F)F)cc(O)c1-c1cc2c(nn1)N([C@@H]1CCCN(C3CC3)C1)CC2 [Example 18, 2-{7-[(3R)-1-cyclopropylpiperidin-3-yl]-6,7-dihydro-5H-pyrrolo[2,3-c]pyridazin-3-yl}-3-methyl-5-(trifluoromethyl)phenol]
8.6 | Cc1cc(C(F)(F)F)cc(O)c1-c1cc2c(C#N)cn(C34CCCC(O)(C3)C4)c2nn1 [Example 16, 7-(5-hydroxybicyclo[3.1.1]heptan-1-yl)-3-[2-hydroxy-6-methyl-4-(trifluoromethyl)phenyl]-7H-pyrrolo[2,3-c]pyridazine-5-carbonitrile]
9.16 | Cc1cc(C(F)(F)F)cc(O)c1-c1cc2c3c(n([C@H]4C[C@@](C)(O)C4)c2nn1)CCO3 [Example 83, 2-{8-[(1s,3s)-3-hydroxy-3-methylcyclobutyl]-7,8-dihydro-6H-furo[2′,3′:4,5]pyrrolo[2,3-c]pyridazin-3-yl}-3-methyl-5-(trifluoromethyl)phenol]
9.07 | Cc1cc(C(F)(F)F)cc(O)c1-c1cc2c(nn1)N([C@@H]1CCCN(C)C1)C[C@@H]2C (single isomer, unassigned) [Example 34, 3-methyl-2-{(5R or 5S)-5-methyl-7-[(3R)-1-methylpiperidin-3-yl]-6,7-dihydro-5H-pyrrolo[2,3-c]pyridazin-3-yl}-5-(trifluoromethyl)phenol]
10 | Cc1cc(C(F)(F)F)cc(O)c1-c1cc2c(nn1)N([C@@H]1CCCN(C)C1)C[C@H]2C (single isomer, unassigned) [Example 33, 3-methyl-2-{(5S or 5R)-5-methyl-7-[(3R)-1-methylpiperidin-3-yl]-6,7-dihydro-5H-pyrrolo[2,3-c]pyridazin-3-yl}-5-(trifluoromethyl)phenol]
6.18 | CCN1CCC[C@@H](N2CCc3cc(-c4c(C)cc(Cl)cc4O)nnc32)C1 [Example 26, 5-chloro-2-{7-[(3R)-1-ethylpiperidin-3-yl]-6,7-dihydro-5H-pyrrolo[2,3-c]pyridazin-3-yl}-3-methylphenol]
8.33 | CCN1CCC[C@@H](c2cccc3cc(-c4c(C)cc(C(F)(F)F)cc4O)nnc23)C1 (single isomer, unassigned) [Example 97, 2-{8-[(3R or 3S)-1-ethylpiperidin-3-yl]cinnolin-3-yl}-3-methyl-5-(trifluoromethyl)phenol]

Test system: not listed separately
Experiment: Pharmacokinetics test in mice (plasma and brain concentration, LC/MS/MS)
Type: in vivo
Details: mouse; male BALB/c mice; oral 10 mg/kg; two hours after administration; concentration in brain homogenate standardized with concentration in plasma
Description: Two hours after oral administration of the test compound (10 mg/kg) to male BALB/c mice, blood was collected from the posterior vena cava under isoflurane anesthesia, and plasma was obtained by centrifugation. In addition, the brain was collected after euthanasia by exsanguination, and distilled water was added to the obtained brain sample in an amount four times the wet weight of the brain to prepare a 20% homogenate. The compound concentrations in the obtained plasma and brain homogenate were measured by LC/MS/MS. The central transfer parameter Kp, brain was calculated by standardizing the concentration in the brain homogenate with the concentration in plasma. In the table, Ex indicates the example number. […].

Kp at 2 h | Compound
0.65 | Cc1cc(C(F)(F)F)cc(O)c1-c1cc2c(C)cn([C@H]3C[C@@](C)(O)C3)c2nn1 [Example 4, 2-{7-[(1s,3s)-3-hydroxy-3-methylcyclobutyl]-5-methyl-7H-pyrrolo[2,3-c]pyridazin-3-yl}-3-methyl-5-(trifluoromethyl)phenol]
0.7 | COc1cn([C@H]2C[C@@](C)(O)C2)c2nnc(-c3c(C)cc(C(F)(F)F)cc3O)cc12 [Example 10, 2-{7-[(1s,3s)-3-hydroxy-3-methylcyclobutyl]-5-methoxy-7H-pyrrolo[2,3-c]pyridazin-3-yl}-3-methyl-5-(trifluoromethyl)phenol]
0.92 | Cc1cc(Cl)cc(O)c1-c1cc2c(F)cn([C@H]3C[C@@](C)(O)C3)c2nn1 [Example 27, 5-chloro-2-{5-fluoro-7-[(1s,3s)-3-hydroxy-3-methylcyclobutyl]-7H-pyrrolo[2,3-c]pyridazin-3-yl}-3-methylphenol]
1.1 | Cc1cc(C(F)(F)F)cc(O)c1-c1cc2ccn([C@H]3C[C@@](C)(O)C3)c2nn1 [Example 3, 2-{7-[(1s,3s)-3-hydroxy-3-methylcyclobutyl]-7H-pyrrolo[2,3-c]pyridazin-3-yl}-3-methyl-5-(trifluoromethyl)phenol]
